Tests used:
Assay type in all cases: in vivo, cow
[1] = test system: cows (Holstein Friesians); assay: Treatment with DPD analogs (organosulfur compounds) and milk yield (Example 8); conditions: individual cows; dose per compound as listed in E284
Protocol: Study design. 36 cows (Holstein Friesians) from 2 farms were used. The feed of the cows was composed of TMR, including corn and grass silage, supplemented with soya and minerals. […] The cows were milked in a milk robot. […] The cows were milked twice a day. The cows were housed in free stables. […] Placebo treatment corresponded to administration of two gel capsules containing 180 ml water.
For this study dosages synthetic compounds (>96% purity) as indicated in table 17 were administered to cows. The objective of this study was to compare the activity of a corresponding dose of the compounds expressed in mol, based on the number of moles that is present in 80 ml di-n-propyl disulfide at 20° C. The number of moles was converted to ml or grams of the tested compounds. For this purpose, the molecular weight and specific density were used in the calculations. The compounds were formulated in the gel capsules as indicated in the previous examples.
Before the various dosages were administered, the milk yields were monitored for at least 5 days.

[2] = test system: cows (Holstein Friesians); assay: Dose-response DPD treatment and milk yield (Example 2); conditions: for Milk yield Last milking: before administration; for % reduction after 24 h / % reduction after 48 h / % reduction after 72 h / % reduction after 96 h: vs milk yield before treatment
Excerpt: Study design. Twenty-seven cows (Holstein Friesians) from 2 farms were used. […] The cows were milked twice a day. The cows were housed in free stables.
[…] For each dosage 3 cows were used.

[3] = test system: Holstein Frisian dairy cows; assay: Effect of 80 ml synthetic DPD on udder pressure, stress behavior and milk leakage after abrupt dry off (Example 3)
Protocol: Holstein Frisian dairy cows were selected with a production of at least 12.5 kg milk/day at the last lactation. These cows were immediately treated after the last milking before abrupt dry off with 80 ml di-n-propyl disulfide (DPD) took place in the three studies of this example. Because of a limited number of available cows, a control group was available only in study 3. Treated cows were monitored for udder pressure, milk leakage and stress after the last milking every 12 hours for the first 72 hours.
46 Dairy cows (Holstein Frisian) from 7 farms in The Netherlands were enrolled in this field study for two months. In table 8 a description is presented with respect to some keeping conditions of and information about the cows.
After the last milking, the cows were isolated from the other lactating cows. Only at farm 2 and 6 the cows could hear the milking machine. After isolation the cows were administered 80 ml synthetic DPD. Hereafter, the cows were monitored by the farmer for 72 hours and scored each 12 hour after abrupt dry off. The farmer scored visually for milk leakage (yes/no-scores), udder pressure and stress according to a standard scoring form (see tables 9 and 10). Cows somatic cell count numbers were extracted from the last milk recording before drying and the first milk recording after calving (5-30 Days In Lactation).
Data analysis: the control groups with respect to milk leakage, udder stress and stress were scored and compared with the data as presented earlier in literature. For milk leakage, the data were compared assumed that 24.5% of the cows are going to leak milk after drying off (De Prado-Taranilla et al., 2020. Incidence of milk leakage after dry-off in European dairy herds, related risk factors, and its role in new intramammary infections. Journal of Dairy Science, 103(10), 9224-9237.). Udder Pressure (Bertulat et al., 2013. Measurement of fecal glucocorticoid metabolites and evaluation of udder characteristics to estimate stress after sudden dry-off in dairy cows with different milk yields. Journal of Dairy Science, 96(6), 3774-3787) and Stress (Chapinal et al., 2014. Changes in lying behavior after abrupt cessation of milking and regrouping at dry-off in free stall-housed cows: A case study. Journal of Veterinary Behavior, 9(6), 364-369;) were translated to the scoring tables as expected outcome (table 11).

[4] = 80 ml synthetic DPD, abrupt dry off, vs control group

CCCSSCCC [DPD, di-n-propyl disulfide]
Milk yield (kg) After 24 h [1]: 8.5 kg
Milk yield (kg) After 48 h [1]: 7.4 kg
Milk yield (kg) After 72 h [1]: 15.6 kg
Milk yield (kg) After 96 h [1]: 17.7 kg
Average reduction 24 and 48 h (%) ([2]; 10 ml DPD): −3.3%
Milk yield After 24 h ([2]; 10 ml DPD): 14.45 kg
Milk yield After 48 h ([2]; 10 ml DPD): 13.98 kg
Milk yield After 72 h ([2]; 10 ml DPD): 12.99 kg
Milk yield After 96 h ([2]; 10 ml DPD): 13.78 kg
Milk yield Last milking ([2]; 10 ml DPD): 13.76 kg
% reduction after 24 h ([2]; 10 ml DPD): −5%
% reduction after 48 h ([2]; 10 ml DPD): −1.6%
% reduction after 72 h ([2]; 10 ml DPD): 5.6%
% reduction after 96 h ([2]; 10 ml DPD): 0%
Average reduction 24 and 48 h (%) ([2]; 20 ml DPD): 23%
Milk yield After 24 h ([2]; 20 ml DPD): 9.42 kg
Milk yield After 48 h ([2]; 20 ml DPD): 10.2 kg
Milk yield After 72 h ([2]; 20 ml DPD): 12.93 kg
Milk yield After 96 h ([2]; 20 ml DPD): 12.68 kg
effect on milk yield compared to the milk yield before treatment ([2]; 20 ml DPD): clear lowering on milk yield
Milk yield Last milking ([2]; 20 ml DPD): 12.72 kg
% reduction after 24 h ([2]; 20 ml DPD): 26%
% reduction after 48 h ([2]; 20 ml DPD): 20%
% reduction after 72 h ([2]; 20 ml DPD): −1.7%
% reduction after 96 h ([2]; 20 ml DPD): 0%
Average reduction 24 and 48 h (%) ([2]; 50 ml DPD): 33%
Milk yield After 24 h ([2]; 50 ml DPD): 10.03 kg
Milk yield After 48 h ([2]; 50 ml DPD): 8.38 kg
Milk yield After 72 h ([2]; 50 ml DPD): 14.16 kg
Milk yield After 96 h ([2]; 50 ml DPD): 13.68 kg
Milk yield Last milking ([2]; 50 ml DPD): 13.73 kg
% reduction after 24 h ([2]; 50 ml DPD): 27%
% reduction after 48 h ([2]; 50 ml DPD): 39%
% reduction after 72 h ([2]; 50 ml DPD): −3.1%
% reduction after 96 h ([2]; 50 ml DPD): 0%
Average reduction 24 and 48 h (%) ([2]; 80 ml DPD): 55%
Milk yield After 24 h ([2]; 80 ml DPD): 8.46 kg
Milk yield After 48 h ([2]; 80 ml DPD): 7.40 kg
Milk yield After 72 h ([2]; 80 ml DPD): 15.63 kg
Milk yield After 96 h ([2]; 80 ml DPD): 17.65 kg
Milk yield Last milking ([2]; 80 ml DPD): 17.63 kg
% reduction after 24 h ([2]; 80 ml DPD): 52%
% reduction after 48 h ([2]; 80 ml DPD): 58%
% reduction after 72 h ([2]; 80 ml DPD): 11.3%
% reduction after 96 h ([2]; 80 ml DPD): 0%
behavior of the cows ([2]; 80 ml or more DPD): became restless and showed a more active behavior
Average reduction 24 and 48 h (%) ([2]; 100 ml DPD): 51%
Milk yield After 24 h ([2]; 100 ml DPD): 8.12 kg
Milk yield After 48 h ([2]; 100 ml DPD): 8.44 kg
Milk yield After 72 h ([2]; 100 ml DPD): 13.33 kg
Milk yield After 96 h ([2]; 100 ml DPD): 16.55 kg
Milk yield Last milking ([2]; 100 ml DPD): 16.23 kg
% reduction after 24 h ([2]; 100 ml DPD): 50%
% reduction after 48 h ([2]; 100 ml DPD): 52%
% reduction after 72 h ([2]; 100 ml DPD): 17.9%
% reduction after 96 h ([2]; 100 ml DPD): −0.2%
Average reduction 24 and 48 h (%) ([2]; 150 ml DPD): 62%
Milk yield After 24 h ([2]; 150 ml DPD): 8.72 kg
Milk yield After 48 h ([2]; 150 ml DPD): 5.17 kg
Milk yield After 72 h ([2]; 150 ml DPD): 11.24 kg
Milk yield After 96 h ([2]; 150 ml DPD): 14.63 kg
Milk yield Last milking ([2]; 150 ml DPD): 14.78 kg
% reduction after 24 h ([2]; 150 ml DPD): 59%
% reduction after 48 h ([2]; 150 ml DPD): 65%
% reduction after 72 h ([2]; 150 ml DPD): 24%
% reduction after 96 h ([2]; 150 ml DPD): 0%
Average reduction 24 and 48 h (%) ([2]; 175 ml DPD): 55%
Milk yield After 24 h ([2]; 175 ml DPD): 8.44 kg
Milk yield After 48 h ([2]; 175 ml DPD): 8.75 kg
Milk yield After 72 h ([2]; 175 ml DPD): 13.24 kg
Milk yield Last milking ([2]; 175 ml DPD): 15.63 kg
% reduction after 24 h ([2]; 175 ml DPD): 54%
% reduction after 48 h ([2]; 175 ml DPD): 56%
% reduction after 72 h ([2]; 175 ml DPD): 15.3%
Average reduction 24 and 48 h (%) ([2]; 200 ml DPD): 52%
Milk yield After 24 h ([2]; 200 ml DPD): 11.29 kg
Milk yield After 48 h ([2]; 200 ml DPD): 10.87 kg
Milk yield After 72 h ([2]; 200 ml DPD): 13.56 kg
Milk yield Last milking ([2]; 200 ml DPD): 21.31 kg
% reduction after 24 h ([2]; 200 ml DPD): 53%
% reduction after 48 h ([2]; 200 ml DPD): 51%
% reduction after 72 h ([2]; 200 ml DPD): 36.4%
behavior and eating behavior of the cows ([2]; after DPD administration): relaxed and quiet behavior and no change in eating behavior was observed
adverse effects ([2]; dose of 200 grams administered to a cow): without demonstrating any adverse effects
effect on milk yield ([2]; more than 80 ml DPD): no further decrease of milk yield was observed
behavior of the cows ([2]; more than 100 ml DPD): looked like to become more active
dosage at which the milk yield decrease became visible ([2]; single oral dose): ≥ 20 mL
dosage giving maximum response (milk yield decrease) ([2]; single oral dose): ≥ 80 mL
duration of the effect of DPD on milk yield ([2]; single oral dose): disappears on the 3rd and 4th day after treatment
behavior of the cows ([2]; until 80 ml DPD): no undesired behavior of the cows was observed
side effects ([3]; 80 ml synthetic DPD after last milking, 46 cows): None of the cows showed any side effects
milk fever at calving ([3]; 80 ml synthetic DPD at dry off): None of the cows had milk fever at calving
average SCC (somatic cell count) ([3]; 80 ml synthetic DPD at dry off, first milk recording of the new lactation): 58,000 cells/ml
milk leakage [3, 4]: less milk leakage
stress [3, 4]: lower
udder pressure [3, 4]: lower udder pressure
average SCC (somatic cell count) ([3]; last milk recording of the last lactation (before dry off)): 89,000 cells/ml
